Common to all, as to assay type: in vivo, human
A short description of series [1]: Phase 1/2 pediatric study of brentuximab vedotin: serum pharmacokinetics. The note with it: pediatric patients, 1.4 or 1.8 mg/kg body weight every 3 weeks, AUC versus age (FIG. 1A). The source says: This study had assessment of pharmacokinetics of BV in pediatric patients as one of its objectives.
The goal of phase 1 portion of the study was to establish safety and define MTD (maximum tolerated dose) of brentuximab vedotin in pediatric hematological malignancies with high expression of CD30, both HL and ALCL were included in the phase 1 study population. The phase 2 study was designed to administer brentuximab vedotin at the RP2D (recommended phase II dose) determined as the MTD [Maximum Tolerated Dose] in the phase 1 portion of the study.
Blood samples for determining BV levels from the serum were obtained at several time points during treatment with BV at the dose of 1.4 or 1.8 mg/kg body weight every 3 weeks. These doses were within the range of doses that were previously determined to be safe and efficacious in the adult population in earlier studies (Younes, et al., N. Engl J Med 363; 19, Nov. 2010).
The pharmacokinetic analyses described here included pharmacokinetic data from 30 pediatric patients for the initial analyses.

The subject of series [2] is relapsed or refractory (r/r) Hodgkin Lymphoma (HL) or systemic anaplastic large-cell lymphoma (sALCL). The series is described as follows: Example 2: BSA-based BV monotherapy in pediatric patients. Here is the method:
Pediatric study subjects are administered BV (administered IV infusion, once every three weeks (21 days)) at a dose of 71.5 mg/m^2. Each 21-day treatment cycle is composed of 1 day study drug treatment, followed by a monitoring period of 20 days. Patients may receive BV for up to 16 cycles. Objective response rates (ORR; complete remission (CR)+ partial remission (PR)) are determined by an independent review facility (IRF) using PET, CT, MRI and, clinical assessment according to the International Working Group (IWG) Revised Response Criteria for Malignant Lymphoma. Time to progression (from the first dose of study treatment to the date of first documented progressive disease), time to response (from the first dose of study treatment to the date of first documentation of a complete or partial response), duration of response (from the date of first documentation of a response to the date of progressive disease), event-free survival (from first dose until treatment failure), progression-free survival (PFS; from the first dose of study treatment to disease progression or death), and overall survival (OS; from the first dose of study treatment to date of death) are also evaluated. Patients are followed for progression-free survival (PFS) and overall survival (OS) every 12 weeks for 12 months after the end of treatment (EOT) visit. […]

Series [3] has as its system CD30-positive cutaneous t-cell lymphomas. The experiment in a line: Example 5: BSA-based BV versus methotrexate or bexarotene in pediatric patients. The following applies: BV 71.5 mg/m^2 IV every three weeks, monotherapy, up to 16 cycles. Here is the method:
Pediatric (non adult human) patients with CD30-positive cutaneous t-cell lymphomas (Primary Cutaneous Anaplastic Large Cell Lymphoma, Mycosis Fungoides, Cutaneous T-Cell Lymphoma) are provided. Study subjects are randomly assigned to one of the following treatments: 1) BV (administered IV, once every three weeks (21 days)) at a dose of 71.5 mg/m^2 as monotherapy for up to a total of 16 cycles; or 2) physician's choice of methotrexate or bexarotene (methotrexate is administered orally (5 to 50 mg) once weekly; dose adjustment is guided by patient response and toxicity or bexarotene is administered orally (300 mg/m^2) once daily with meals).
The proportion of patients achieving an objective response (ORR; complete remission (CR)+partial remission (PR)) that lasts at least 4 months is evaluated. The proportion of patients achieving complete response (CR) and progression-free survival (PFS) are also evaluated.

Turning to brentuximab vedotin, in series [1], the “systemic exposure to BV as measured by the Area Under the concentration-time Curve (AUC)” value is “decrease in age from about 18 years led to decrease systemic exposure to BV”. In addition, the “CR, PR, PFS, OS relative to treatments without BV” value in series [2] (71.5 mg/m^2 IV once every three weeks, up to 16 cycles) is “one or more of improved CR, PR, PFS, or OS”. Besides, the “CR, PR, PFS, OS of BSA-adjusted doses relative to weight-adjusted dose” value in series [2] (71.5 mg/m^2 versus BV at a weight-adjusted dose) is given as “one or more of improved CR, PR, PFS or OS”. For the same substance, the “ORR, CR, PFS relative to methotrexate or bexarotene” value in series [3] is on record as “one or more of improved ORR, CR or PFS”.
